Test results taken from PMC11811207, “Macrocycle-based PROTACs selectively degrade cyclophilin A and inhibit HIV-1 and HCV” (Nature Communications, 2025).

Columns and labels:
CypA = target: T1, CypA (Homo sapiens, UniProt P62937); test: CypA degradation in Jurkat cells by immunoblot; assay type: cell-based; conditions: for effect on CypA levels in the absence of PROTAC: Jurkat, MLN4924 1 μM 6 h or VHLi 50 μM
T1 construct: endogenous in cells; host or cells: Jurkat; also Calu-3, THP-1, MDMs, U87, Huh7, primary human CD4+ T cells
Protocol: (§1) U87 cells (5 × 10^4 cells/well, 12 well plate), Huh7 cells (1 × 10^5 cells/well, 12 well plate), Calu-3 cells (1 × 10^5 cells/well, 12 well plate), Jurkat cells (5 × 10^5 cells/mL, 24 well plate, 1 mL/well), THP-1 Dual cells (4 × 10^5 cells/mL, 24 well plate, 1 mL/well), primary MDMs (confluent well), or primary resting/activated T cells (1-2 × 10^6 cells/well, 96 well plate) were treated with 5 μM Cyp-PROTAC or DMSO for 48 h. […] MLN4924 was washed out before the addition of Cyp-PROTAC, but VHLi was kept in for the duration of the experiment. In competitor experiments, Jurkat cells were treated with 10 μM TWH106 and 1 μM Cyp-PROTAC simultaneously for 48 h. For the time course experiments, Jurkat cells were treated with 5 μM Cyp inhibitor or DMSO and cells were harvested at indicated time points. For the titration experiments, Jurkat cells were treated with 0.01 – 10 μM Cyp inhibitor or DMSO for 24 h or 48 h. Before harvesting for immunoblot, cells were washed twice in PBS.
(§2) Cells were lysed in RIPA buffer (50 mM Tris pH 8.0, 150 mM sodium chloride, 1.0% Triton X-100, 0.5% sodium deoxycholate, 0.1% sodium dodecyl sulphate (SDS)) supplemented with protease inhibitors (cOmplete mini, EDTA-free, Roche) and phosphatase inhibitors (PhosSTOP, Roche). After 10 min incubation on ice, samples were centrifuged (16000 × g, 10 min, 4 °C), and the supernatant protein content was determined using Pierce^TM BCA Protein Assay Kit (Thermo Fisher Scientific). Samples were combined with 4x Laemmli sample buffer (200 mM Tris pH 6.8, 40% glycerol, 8% SDS, 0.4% Bromophenol Blue) and the appropriate amount of RIPA buffer to normalise protein concentrations of samples and boiled for 5 min. Proteins were separated by SDS-PAGE on 15% polyacrylamide gels and transferred onto nitrocellulose membrane using the Trans-Blot Turbo Transfer System (Bio-Rad). Blots were blocked in 5% milk in PBS-Tween for 1 h and incubated with primary antibodies in 5% milk in PBS-Tween overnight. After washing in PBS-Tween, blots were incubated with IRDye® fluorescent secondary antibodies (LI-COR) for 1 h, washed in PBS-Tween, then PBS, and visualised on an LI-COR Odyssey imaging system. Uncropped and unprocessed scans are provided in the Source Data file (main figures) and in the Figshare research data repository 10.6084/m9.figshare.c.7387381 (supplementary figures). […] Densitometry analysis was performed using ImageJ (v2.14.0), and normalised protein densities were calculated by normalisation to β-actin loading control and untreated control as stated. […]
DC50s and Dmaxs were calculated from sigmoidal (4-parameter logistic) fits, mean (n = 2 independent experiments).

THP-1 cell proteome = test: Mass spectrometry-based proteomics in THP-1 cells; assay type: cell-based, human; conditions: THP-1, 5 μM, 72 h
Protocol: THP-1 Dual cells were treated with 5 μM Cyp inhibitor or DMSO for 72 h. After washing with PBS, cells were lysed (5% SDS, 5 mM tris(2-carboxyethyl)phosphine (TCEP), 10 mM chloroacetamide (CAA), 100 mM Tris, 1% Triton X-100, pH 8.5) and boiled for 10 min followed by sonication in a water bath for 10 min. Protein concentration was estimated by BCA assay (Thermo Fisher Scientific). Protein digestion was automated on a KingFisher APEX robot (Thermo Fisher Scientific) in a 96-well format using a protocol from Koenig et al.[83] with minor modifications. […]
Peptides were then dissolved in 0.5% TFA before liquid chromatography–tandem mass spectrometry (MS/MS) analysis. The mixture of tryptic peptides was analysed using an Ultimate3000 high-performance liquid chromatography system coupled online to an Eclipse mass spectrometer (Thermo Fisher Scientific). […]
All raw files were analysed by DIA-NN v1.8.1[84], searching against library generated automatically using Human reference proteome (UniProt) and standard settings: peptides from 7 to 30 amino acids, max number of missed cleavages of 1, oxidation (M) and protein-acetylation as only variable modifications. The data files generated by DIA-NN were analysed using Perseus version 2.0.10.0[85]. […]

U87 cells = test: MTT viability assay, U87 cells; assay type: cell-based; conditions: U87, 10 μM
Protocol: (§3) U87 cells (1 × 10^4 cells/well, 48 well plate) or Jurkat cells (5 × 10^3 cells/well, 96 well U-bottom plate) were treated with serial dilutions of Cyp inhibitors as indicated. After 48 h, the media was aspirated and replaced with fresh Cyp inhibitor dilutions and the lentiviral vector (MOI: 0.25) for a further 48 h. Experiments were carried out in triplicate.
(§4) 3-(4,5-Dimethyl-2-thiazolyl)-2,5-diphenyl-2H-tetrazolium bromide (MTT) assay was performed on U87 cells, Jurkat cells or Huh7 cells treated with Cyp inhibitors as indicated. At the time point indicated, 10% v/v MTT (stock at 5 mg/mL in PBS) (475989, Sigma Aldrich) was added, and cells were incubated for 1 - 2 h at 37 °C. 100 μL solubilisation solution (10% SDS and 0.01 M HCl) was added, and after overnight incubation at 37 °C, absorbance was measured at 570 nm. Experiments were carried out in triplicate.

Jurkat cells = test: MTT viability assay, Jurkat cells; assay type: cell-based, human; conditions: highest concentrations tested
Protocol: as §3, §4

HCV JFH-1 replicon = test: HCV JFH-1 subgenomic replicon (luciferase) in Huh7 cells; assay type: cell-based; conditions: Huh7, 5 μM pretreatment, washed out, not readded
Protocol: HCV JFH-1 subgenomic replicon (SGR) (pFKI389Luc/NS3-3’_dg_JFH, previously described)[87] plasmid DNA (10 μg) was linearised by digestion with MluI, and purified linearised DNA (1 μg) was used as a template for in vitro transcription, according to the MEGAscript T7 Transcription Kit instructions (Invitrogen). RNA was resuspended in nuclease-free water at a concentration of 1 μg/μL, aliquoted, and stored at − 80 °C.
HCV SGR RNA (5 μg or 1 μg) was electroporated into 2 × 10^6 or 2 × 10^5 Huh7 cells, respectively, using a Neon transfection system (Thermo Scientific). Single-cell suspensions were washed with PBS and resuspended in 100 μL or 10 μL of Buffer R, respectively. Resuspended cells were mixed with RNA and loaded into a Neon Tip and electroporated using the Neon Transfection system (1400 V, 20 ms, 1 pulse) and resuspended in 12 mL or 1.2 mL of media, respectively, prior to seeding in 96 well plates at a density of ~2 × 10^4 cells/well. […] Experiments were carried out in triplicate. Firefly luciferase activity was measured on a Glomax (Promega) at 4 h post electroporation (hpe) and 48 hpe using the SteadyGlo reagent (Promega) according to the manufacturer’s instructions. Data at 48 hpe were normalised to the input luciferase signal at 4 hpe.

full-length human CypA = full-length human CypA (Homo sapiens, UniProt P62937); test: SPR against CypA (immobilised on CM5 chip)
CypB = target: T2, CypB (Homo sapiens, UniProt P23284); test: CypB levels in Jurkat cells by immunoblot; assay type: cell-based
T2 construct: endogenous in cells; host or cells: Jurkat
Protocol: as §1, with “For the time course experiments, Jurkat cells were treated with 5 μM Cyp inhibitor or DMSO and cells were harvested at indicated time points. For the titration experiments, Jurkat cells were treated with 0.01 – 10 μM Cyp inhibitor or DMSO for 24 h or 48 h. Before harvesting for immunoblot, cells were washed twice in PBS.” left out
Cells were lysed in RIPA buffer (50 mM Tris pH 8.0, 150 mM sodium chloride, 1.0% Triton X-100, 0.5% sodium deoxycholate, 0.1% sodium dodecyl sulphate (SDS)) supplemented with protease inhibitors (cOmplete mini, EDTA-free, Roche) and phosphatase inhibitors (PhosSTOP, Roche). After 10 min incubation on ice, samples were centrifuged (16000 × g, 10 min, 4 °C), and the supernatant protein content was determined using Pierce^TM BCA Protein Assay Kit (Thermo Fisher Scientific). […] Densitometry analysis was performed using ImageJ (v2.14.0), and normalised protein densities were calculated by normalisation to β-actin loading control and untreated control as stated. […]

HIV-1 NL4.3 = test: Wild-type HIV-1 spreading infection in activated primary CD4+ T cells
Protocol: NL4.3 stocks were produced by transfection of HEK293T cells in 150 cm^2 flasks with 9 μg pNL4.3 using 60 μL Fugene 6 (E2692, Promega) according to the manufacturer’s instructions. Supernatants were harvested at 48 and 72 h, filtered, DNase treated, purified and concentrated by ultracentrifugation through a 20% sucrose cushion and resuspended in RPMI with 10% FBS. Viral titres were determined by measuring reverse transcriptase (RT) activity in mU by SG-PERT assay[86].
To infect activated primary CD4+ T cells with HIV-1, cells were mixed and incubated with HIV-1 NL4.3 virus (2000 mU RT/10^6 cells) for 4 h at 37 °C. […] After exposure to the virus, T cells were washed twice in PBS by centrifugation (400 × g, 5 min) and resuspended in fresh culture medium. […]
For primary T cell infection experiments, cells were washed in PBS and stained with fixable Zombie R685 Live/Dead dye (423119, BioLegend, 1:500) for 5 min at 37 °C. […] Intracellular CypA was detected by incubating permeabilised cells with CypA antibody (clone 1F4-1B5, ab58144, Abcam, 1:1000) for 30 min, followed by washing (PBS) and 15 min incubation with secondary anti-mouse AlexaFluor488- or AlexaFluor647-tagged antibody. After washing with PBS (700 × g, 5 min, 4 °C) to remove excess antibodies, data were acquired on a NovoSampler Pro (Agilent) and analysed using FlowJo v10.10 (Tree Star) or NovoExpress 1.5.0 (Agilent).

N-truncated CypB = N-truncated CypB (Homo sapiens, UniProt P23284); test: SPR against N-truncated CypB (immobilised on CM5 chip)
CypA and CypB = CypA and CypB immunoblot in Jurkat cells treated with CsA-based PROTAC JW4-10; assay type: cell-based, human
Protocol: as §1
as §2, with “(Bio-Rad).” for “(Bio-Rad). Blots were blocked in 5% milk in PBS-Tween for 1 h and incubated with primary antibodies in 5% milk in PBS-Tween overnight. After washing in PBS-Tween, blots were incubated with IRDye® fluorescent secondary antibodies (LI-COR) for 1 h, washed in PBS-Tween, then PBS, and visualised on an LI-COR Odyssey imaging system. Uncropped and unprocessed scans are provided in the Source Data file (main figures) and in the Figshare research data repository 10.6084/m9.figshare.c.7387381 (supplementary figures).”

T1 sequence (P62937 whole entry): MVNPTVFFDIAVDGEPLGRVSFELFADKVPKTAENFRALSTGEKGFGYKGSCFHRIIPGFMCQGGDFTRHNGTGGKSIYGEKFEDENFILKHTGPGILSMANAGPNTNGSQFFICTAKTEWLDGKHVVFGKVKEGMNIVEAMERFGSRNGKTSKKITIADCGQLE
N-truncated CypB, sequence (P23284 34-212): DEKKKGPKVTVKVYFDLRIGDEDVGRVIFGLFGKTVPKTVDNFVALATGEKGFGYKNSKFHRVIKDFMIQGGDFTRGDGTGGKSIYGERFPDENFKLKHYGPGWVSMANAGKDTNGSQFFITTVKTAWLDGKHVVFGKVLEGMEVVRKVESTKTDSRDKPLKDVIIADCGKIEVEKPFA
full-length human CypA, sequence (P62937 whole entry): as the sequence (P62937 whole entry) above
T2 sequence (P23284 34-216): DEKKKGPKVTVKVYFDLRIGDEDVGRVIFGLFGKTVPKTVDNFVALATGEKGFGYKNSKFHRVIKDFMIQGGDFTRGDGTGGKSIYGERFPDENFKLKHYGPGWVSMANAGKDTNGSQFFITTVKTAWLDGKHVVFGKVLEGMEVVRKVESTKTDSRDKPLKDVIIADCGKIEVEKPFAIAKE

Cc1ncsc1-c1ccc(CNC(=O)[C@@H]2C[C@@H](O)CN2C(=O)[C@@H](NC(=O)C2(C#N)CC2)C(C)(C)C)cc1 [VH298, reference compound]
effect on CypA levels in the absence of PROTAC (CypA): did not impact CypA levels

NS(=O)(=O)OC[C@@H]1C[C@@H](n2ccc3c(N[C@H]4CCc5ccccc54)ncnc32)C[C@@H]1O [MLN4924, reference compound]
effect on CypA levels in the absence of PROTAC (CypA): no impact on CypA levels

C[C@@H]1NC(=O)[C@H](Cc2ccc([N+](=O)[O-])cc2)NC(=O)C/C=C/c2ccc3ccc(nc3c2)[C@@H](C)OC(=O)[C@@H]2CCCN(N2)C1=O [TWH106]
effect on CypA in proteomics (THP-1 cell proteome): did not affect CypA levels | cell viability (MTT) (U87 cells): slightly toxic | cell viability (MTT) (Jurkat cells): toxic | antiviral activity against HCV replicon, pretreatment only (HCV JFH-1 replicon): abrogated | Kd (full-length human CypA; CypA KD, SPR equilibrium analysis, full-length CypA, mean of two independent experiments ± SD): 0.053 ± 0.005 µM | Kd (full-length human CypA; CypA dissociation constant (KD) from sigmoid fit, representative experiment, one of two independent experiments, Supplementary Fig. 2): 0.048 µM | effect on CypB levels, time course (CypB; 5 μM, 6 days): most effectively reduced | effect on CypB levels, dose response (CypB; 0.01–10 μM, 48 h): dose-dependent decrease in CypB | antiviral activity, pretreatment only (HIV-1 NL4.3; 5 μM 48 h pretreatment, not readded after infection): abrogated | antiviral activity (Gag+ cells, viral particles in supernatant) (HIV-1 NL4.3; continuous treatment 1 μM or 5 μM): antiviral | Kd (N-truncated CypB; CypB KD, SPR equilibrium analysis, N-truncated CypB, mean of two independent experiments ± SD): 0.139 ± 0.024 µM | Kd (N-truncated CypB; CypB dissociation constant (KD) from sigmoid fit, representative experiment, one of two independent experiments, Supplementary Fig. 3): 0.163 µM | lower affinity for N-truncated CypB compared to CypA (N-truncated CypB; SPR KD CypB vs CypA): 2-3 fold | effect on CypA protein levels, time course (CypA; Jurkat cells, 5 μM, up to 6 days): did not reduce CypA levels except a small decrease after 6 days | effect on CypA levels, dose response (CypA; Jurkat cells, 0.01 – 10 μM, 24 h and 48 h): mild CypA loss only at 10 µM and after 24 hours

CC[C@@H]1NC(=O)[C@H]([C@H](O)[C@H](C)C/C=C/CCCCC(=O)N[C@H](C(=O)N2C[C@H](O)C[C@H]2C(=O)N[C@@H](C)c2ccc(-c3scnc3C)cc2)C(C)(C)C)N(C)C(=O)[C@H](C(C)C)N(C)C(=O)[C@H](CC(C)C)N(C)C(=O)[C@H](CC(C)C)N(C)C(=O)[C@@H](C)NC(=O)[C@H](C)NC(=O)[C@H](CC(C)C)N(C)C(=O)[C@H](C(C)C)NC(=O)[C@H](CC(C)C)N(C)C(=O)CN(C)C1=O [JW4-10]
degradation of CypA and CypB (CypA and CypB; 5 μM, 48 h): degraded both CypA and CypB | rescue by excess VHL inhibitor VH298 pretreatment (CypA and CypB; 50 µM VHLi 2 h before 5 µM PROTAC): rescued CypA, but not CypB | rescue by MLN4924 pretreatment (CypA and CypB; MLN4924 1 μM 6 h before 5 μM PROTAC): fully rescued CypA, but not CypB
